Laboratory results: US10195204B2, “Methods of treating hemoglobinopathies” (DUKE UNIVERSITY, priority 2011, dated 2019)

Experiments:
[1] = system: ERK1/2 phosphorylation in SS RBCs; assay: ERK1/2 phosphorylation in SS RBCs, Western blot (phosphoERK normalized to total ERK); assay type: cell-based, human
Protocol: Aliquots of packed RBCs were treated with various reagents to affect cAMP signaling or protein phosphorylation. […] Treated RBCs were then washed 5 times with 4 ml PBS with Ca^2+ and Mg^2+. Normal RBCs were used as controls. Prior to adhesion assays, treated RBCs were labeled with PKH 26 red fluorescent cell linker kit (Sigma), following the manufacturer's instructions.
Treated packed RBCs were lysed with hypotonic buffer (5 mM Na2HPO4+1 mM EDTA+0.1% NaN3, pH 8) containing 2 mM phenylmethylsulphonylfluoride (PMSF, Sigma), phosphatase inhibitor cocktail (Sigma) and protease inhibitor cocktail (Sigma). Protein separation by polyacrylamide gel electrophoresis using equal amounts of total RBC membrane ghost proteins per lane, after correcting total protein measurements for residual hemoglobin content, and Western blot^19 using the appropriate Ab were then performed. Mouse 3T3/A31 fibroblast lysate was used as a ERK1/2 positive control for immunoblots. For total ERK1/2, membranes blotted with anti-phosphoERK Ab were stripped and reexposed to Western blotting using anti-ERK1/2 Ab. Bands were analyzed densitometrically using ImageJ software downloaded from the NIH website. PhosphoERK1/2 data were normalized according to total ERK1/2 and are presented as fold change in ERK phosphorylation.

[2] = system: ICAM-4 (LW) phosphorylation; assay: 32P labeling, ICAM-4 immunoprecipitation and detection of phosphorylation in SS RBCs; assay type: cell-based, human; conditions: SS RBCs preincubated with inhibitor
Protocol: Cells were then washed 4 times. ICAM-4 protein immunoprecipitation, and total and phospho-ICAM-4 detection were performed as previously described in detail.^4 To further confirm that the immunoprecipitates were specific for ICAM-4, anti-ICAM-4 mAb and the negative control immunoglobulin P3 were used to immunoprecipitate ICAM-4 from non-radiolabeled SS RBCs incubated in the presence or absence of epinephrine. Blots were then immunostained with anti-ICAM-4 mAb.

[3] = system: PMN adhesion to non-activated HUVECs; assay: Adhesion to HUVECs of PMNs co-incubated with epinephrine-stimulated SS RBCs; assay type: cell-based, human; conditions: SS RBCs pre-incubated with inhibitor for 1 hour, then 20 nM epinephrine 1 min
Protocol: The cells were then washed prior to admixture with fluorescently-labeled native polymorphonuclear cells (PMNs) obtained from healthy donors at a RBC:PMN ratio of 10:1. After co-incubation for 30 minutes at 37° C., cells mixtures were assayed for their ability to adhere to non-activated HUVECs. […] Downregulation of RBC adhesion receptor activity by targeting ERK may not only decrease SS RBC adhesion to the endothelium but also reduce RBC-stimulated leukocyte activation.

[4] = system: SS RBC adhesion to TNF-α-activated HUVECs; assay: Flow chamber adhesion of SS RBCs to TNF-α-activated HUVECs; assay type: cell-based, human; conditions: for effect on SS RBC adhesion to TNF-α-activated HUVECs: SS RBCs treated with MEK inhibitor (10 μM; RDEA119 1 and 10 μM)
Protocol: Cells were then washed three times with 5 ml PBS with Ca^2+ and Mg^2+. Prior to adhesion assays, washed treated SS RBCs were labeled with PKH 26 red fluorescent cell linker kit (Sigma-Aldrich, St. Louis, Mo.), following the manufacturer's instructions.
Graduated height flow chambers were used to quantify adhesion of RBCs to HUVECs substantially as previously described in detail.^4, 20 In some adhesion studies, slides coated with HUVECs were treated with human recombinant TNF-α at 10 ng/ml for 4 hours. Slides coated with HUVECs treated or not with TNF-α were then washed three times with 20 ml HBSS with 1.26 mM Ca^2+, 0.9 mM Mg^2+ (Gibco, Grand Island, N.Y.) warmed previously to 37° C. and then fit into a variable height flow chamber. The flow chamber was mounted on the stage of an inverted phase contrast microscope (Diaphot, Nikon Inc., Melville, N.Y.) connected to a thermoplate (Tokai Hit Co., Ltd., Japan) set at 37° C. Cells were observed using a video camera (RS photometrics,) attached to the microscope and connected to a Macintosh G4 computer. RBC (3 ml) suspended at 0.2% (vol/vol) in HBSS with Ca^2+, Mg^2+ were infused into the flow chamber and allowed to adhere to the slide for 10 min without flow. Before exposure to flow, a minimum of three fields at each of seven different locations along a line oriented normal to future flow were examined for the total number of fluorescent cells. Fluid flow (HBSS with Ca^2+, Mg^2+) was then started using a calibrated syringe pump. After exposure to flow, the fields were again examined and the number of adherent cells counted. The fraction of adherent cells was presented as (number of cells attached after exposure to flow)/(cells present per field before flow). The wall shear stress was calculated as:
[formula] τw=wall shear stress (dyne/cm^2); Q=volumetric flow rate (cm^3/s); μ is media viscosity, w is the width of the flow channel, and H(x) is the height of the flow chamber as a function of position along the microscope slide. Several investigators have shown that blood flow in small vessels may be continuous, with shear stresses of 1-2 dynes/cm^2, or flow may be intermittent. Our data were obtained using both intermittent and continuous flow conditions.

[5] = system: human SS RBC adhesion in inflamed venules and vaso-occlusion; assay: Intravital microscopy in TNF-α-treated nude mice infused with human SS RBCs treated ex vivo with MEK inhibitor; conditions: for percentage of venular length occupied by treated SS RBCs: compared to sham
Text: For some in vivo adhesion studies, packed SS RBCs were fluorescently labeled with the dye Dil (Molecular Probes Inc., Eugene, Oreg.), following the manufacturer's instructions. […] Cell morphology was checked by microscopy.

[6] = system: SS RBC membrane ghost phosphopeptides; assay: Label-free quantitative phosphoproteomic analysis of SS RBC membrane ghosts; assay type: cell-based, human; conditions: recombinant ERK2 added to U0126-treated SS RBC ghosts
Protocol: (§1) Ghosted RBCs were spun at 14,000 rpm for 15 min at 4° C. to pellet membranes. Membrane pellets were washed with 1 mL 50 mM ammonium bicarbonate (pH 8.0) with vortexing and were then spun at 14,000 rpm for 30 min at 4° C. The supernatant was then removed and 500 μL of 50 mM ammonium bicarbonate with μL 0.2% acid-labile surfactant (ALS-1) in 50 mM ammonium bicarbonate (pH 8.0) was added. Samples were subjected to probe sonication three-times for 5 sec with cooling on ice between and insoluble material was cleared by centrifugation at 14,000 rpm for 30 mins at 4° C. Samples were normalized to approximately 2 μg/μl following a micro-Bradford assay (Pierce Bioscience), and were reduced with a final concentration of 10 mM dithiothreitol at 80° C. for 20 min. Samples were then alkylated with a final concentration of 20 mM iodoacetamide at room temperature for 45 min and trypsin was added to a final ratio of 1-to-50 (w/w) enzyme-to-protein and allowed to digest at 37° C. for 18 hr. To remove ALS-1, samples were acidified to pH 2.0 with neat TFA, incubated at 60° C. for 2 hrs and spun at 14,000 rpm to remove hydrolyzed ALS-1. Samples were either subjected directly to LC-MS analysis or subjected to a TiO2 based phosphopeptide enriched protocol.
(§2) To enrich for phosphorylated peptides prior to LC-MS analysis, either 1,125 μg and 970 μg of total digested protein from RBC ghosts co-incubated with recombinant active ERK2 experiments and experiments using epinephrine-treated cells, respectively, were brought to near dryness using vacuum centrifugation and then resuspended in 200 μL of 80% acetonitrile, 1% TFA, 50 mg/ml MassPrep Enhancer (pH 2.5) (Waters Corp. Milford, Mass.). Samples were loaded onto an in-house packed TiO2 spin column (Protea Biosciences) with a 562 μg or 485 μg binding capacity for active ERK2 treated or epinephrine treated experiments, respectively. Samples were washed twice with 200 μL 80% acetonitrile, 1% TFA, 50 mg/ml MassPrep Enhancer (pH 2.5) followed by two washes with 200 μL 80% acetonitrile, 1% TFA (pH 2.5). Retained peptides were eluted twice with 100 μL 20% acetonitrile, 5% aqueous ammonia (pH 10.0), acidified to pH 3 with neat formic acid and then brought to dryness using vacuum centrifugation. Prior to LC-MS analysis, each sample was resuspended in 20 μL 2% acetonitrile, 0.1% TFA, 25 mM citric acid (pH 2.5).
Chromatographic separation of phosphopeptide enriched or non-enriched samples was performed on a Waters NanoAquity UPLC equipped with a 1.7 μm BEH130 C1875 μm I.D.×250 mm reversed-phase column. The mobile phase consisted of (A) 0.1% formic acid in water and (B) 0.1% formic acid in acetonitrile. Five μL injections of each sample were trapped for 5 min on a 5 μm Symmetry C18 180 μm I.D.×20 mm column at 20 μl/min in 99.9% A. The analytical column was then switched in-line and the mobile phase was held for 5 min at 5% B before applying a linear elution gradient of 5% B to 40% B or 5% B to 30% B over 90 min at 300 nL/min for ERK2 treated experiments or epinephrine treated experiments, respectively. The analytical column was connected to fused silica PicoTip emitter (New Objective, Cambridge, Mass.) with a 10 μm tip orifice and coupled to the mass spectrometer through an electrospray interface.
(§3) MS data from each phosphopeptide enriched sample was acquired on a Thermo LTQ-Orbitrap XL mass spectrometer operating in positive-ion mode with an electrospray voltage of 2.0 kV with real-time lockmass correction on ambiant polycyclodimethylsiloxane (m/z 445.120025) enabled. The instrument was set to acquire a precursor MS scan from m/z 400-2000 with r=60,000 at m/z 400 and a target AGC setting of 1e6 ions. Each sample was analyzed four-times, one of which was used for additional qualitative identifications only and was not included in the quantitative analysis, with product ions above a threshold of 500 counts were acquired for the top 5 most intense ions in the linear ion trap. […]

[7] = system: AA RBC membrane ghost phosphopeptides; assay: Label-free quantitative phosphoproteomic analysis of normal (AA) RBC membrane ghosts; assay type: cell-based, human
Protocol: as §1
as §2, with “Prior to LC-MS analysis, each sample was resuspended in 20 μL 2% acetonitrile, 0.1% TFA, 25 mM citric acid (pH 2.5).” left out
as §3, with “The instrument was set to acquire a precursor MS scan from m/z 400-2000 with r=60,000 at m/z 400 and a target AGC setting of 1e6 ions.” left out

[8] = SS RBCs treated ex vivo with 10 μM inhibitor for 1 hour, n=5

Pertussis toxin [PTx]
increase in basal phosphorylation of ERK1/2 ([1]; SS RBCs, 1 μg/ml PTx alone): 2.04±0.1 fold | increase in basal phosphorylation of ERK1/2 ([1]; SS RBCs, 2 μg/ml PTx alone): 2.53±0.11 fold

COc1c(C=O)c(O)cc2c1C(=O)c1ccccc1C2=O [Damnacanthal]
effect on PTx-induced ERK phosphorylation ([1]; SS RBCs, 2 μg/ml PTx): did not abrogate

14-22 amide: PKA-specific inhibitor (PKAI)
effect on epinephrine-induced ERK1/2 phosphorylation ([1]; SS RBCs pre-incubated with inhibitor, then 20 nM epinephrine 1 min): completely blocked | effect on basal ERK phosphorylation ([1]; SS RBCs, 30 nM): did not significantly decrease | effect on combined effect of epinephrine and SPI on ICAM-4 phosphorylation [2]: significantly decreased

COc1cc(F)c(F)c(Nc2ccc(I)cc2F)c1NS(=O)(=O)C1(C[C@H](O)CO)CC1 [RDEA119]
ability of epinephrine-activated SS RBCs to promote neutrophil (PMN) adhesion to HUVECs [3]: significantly decreased | effect on SS RBC adhesion to TNF-α-activated HUVECs [4]: significantly abolished | human SS RBC adhesion in inflamed venules [5, 8]: dramatically decreased | vessel obstruction [5, 8]: prevented vessel obstruction | percentage of venular length occupied by treated SS RBCs ([5]; vessels 25 μm in diameter): significantly decreased | percentage of venular length occupied by treated SS RBCs ([5]; vessels with a diameter >25 μm): significantly decreased

CC(=O)Nc1cccc(-n2c(=O)n(C3CC3)c(=O)c3c(Nc4ccc(I)cc4F)n(C)c(=O)c(C)c32)c1 [GSK1120212]
ability of epinephrine-activated SS RBCs to promote neutrophil (PMN) adhesion to HUVECs [3]: significantly decreased | effect on SS RBC adhesion to TNF-α-activated HUVECs [4]: significantly abolished

Cn1cnc2c(F)c(Nc3ccc(Br)cc3Cl)c(C(=O)NOCCO)cc21 [AZD6244]
ability of epinephrine-activated SS RBCs to promote neutrophil (PMN) adhesion to HUVECs [3]: significantly decreased | effect on SS RBC adhesion to TNF-α-activated HUVECs [4]: significantly abolished

TNF-α
increase in SS RBC adhesion vs non-activated HUVECs ([4]; HUVECs treated with TNF-α, shear stress 2 dynes/cm^2, intermittent flow): 2.6 fold

ERK2: commercial recombinant active human ERK2 (Sigma) added to RBC membrane ghosts
change of Ser540/Ser542 doubly phosphorylated peptide within protein 4.1 [6]: +1.7 fold | increase of Ser540/Ser542 doubly phosphorylated peptide within protein 4.1 ([7]; recombinant ERK2 added to U0126-treated AA RBC ghosts): 1.7 fold | increase of Ser540/Ser542 doubly phosphorylated peptide within protein 4.1 ([7]; recombinant ERK2 added to untreated AA RBC ghosts): 2.1 fold
